For eight compounds, RAC app results are on record in ChEMBL document CHEMBL1126840, “Steroidal affinity labels of the estrogen receptor. 1. 17 alpha-(Bromoacetoxy)alkyl/alkynylestradiols” (J Med Chem, 1993).

Assay [1] concerns the target T1, Estrogen receptor (Ovis aries) (UniProt P49885+Q9TU15).
Assay [2] deals with T1, Estrogen receptor (Ovis aries). This is another data set of the same source.
Assay [3] shares this target. The source holds these as a separate data set.

Consider `C[C@]12CC[C@@H]3c4ccc(O)cc4CC[C@H]3[C@@H]1CC[C@@]2(O)C#CCCO`, for which the RAC app in assay [1] turned out to be 3.9; in assay [2], 0.07; in assay [3], 1.

On to `C[C@]12CC[C@@H]3c4ccc(O)cc4CC[C@H]3[C@@H]1CC[C@@]2(O)CCCOC(=O)CBr`, for which the values for the RAC app in assay [1], in assay [2] and in assay [3] were 0.94, 0.021 and 0.21, respectively.

In the case of `C[C@]12CC[C@@H]3c4ccc(O)cc4CC[C@H]3[C@@H]1CC[C@@]2(O)CC1CO1` (stereo in doubt; 6b), the RAC app in assay [1] was 3.9; in assay [2], less than 0.017; in assay [3], 0.2.

Regarding `C[C@]12CC[C@@H]3c4ccc(O)cc4CC[C@H]3[C@@H]1CC[C@@]2(O)C#CCCOC(=O)CBr`, the RAC app came out at 2 in assay [1], 0.066 in assay [2] and 0.79 in assay [3].

With `C[C@]12CC[C@@H]3c4ccc(O)cc4CC[C@H]3[C@@H]1CC[C@@]2(O)C#CCCCCCCO`, the RAC app in assay [1] came to 6.5; in assay [2] it was 0.4; in assay [3], 3.4.

On to `C[C@]12CC[C@@H]3c4ccc(O)cc4CC[C@H]3[C@@H]1CC[C@@]2(O)CCCO`, for which the RAC app in assay [1] worked out at 1.1; in assay [2], 0.024; in assay [3] it was 0.28.

As for `C[C@]12CC[C@@H]3c4ccc(O)cc4CC[C@H]3[C@@H]1CC[C@@]2(O)CC1CO1` (stereo in doubt; 6a), the values for the RAC app in assay [1], in assay [2] and in assay [3] were 12, 0.044 and 1.3, respectively.

Consider `C[C@]12CC[C@@H]3c4ccc(O)cc4CC[C@H]3[C@@H]1CC[C@@]2(O)C#CCCCCCCOC(=O)CBr`, for which the RAC app in assay [1] came to 2.4; in assay [2], 0.24; in assay [3], 1.5.
